“And” between values parts separate entries of the source, which are not always exact repeats. Identical values can stand only once.
Details: [M+H-H2O]+; instrument: TW; calibrated with polyalanine and drug standards

Row | collision cross section (N2) [Å²] | Structure (SMILES)
1 | 173 | COc1ccc2c(c1)OC1(O)COc3cc(OC)c(OC)cc3C1=C2 (stereo not drawn) [12a-HYDROXY-5-DEOXYDEHYDROMUNDUSERONE]
2 | 132.6 | NC[C@H](O)c1ccc(O)c(O)c1 [NOREPINEPHRINE]

Row | Structure (SMILES) | collision cross section (N2) [Å²]
3 | COc1cc([C@@H]2c3cc4c(c(O)c3C[C@H]3COC(=O)[C@@H]32)OCO4)cc(OC)c1OC [beta-PELTATIN] | 189

Same assay, conditions: [M+H]+; instrument: TW; calibrated with polyalanine and drug standards

Row | collision cross section (N2) | Structure (SMILES)
4 | 198.5 Å² | CC1(C)O[C@@H]2C[C@H]3[C@@H]4CCC5=CC(=O)C=C[C@]5(C)[C@H]4[C@@H](O)C[C@]3(C)[C@]2(C(=O)CO)O1 [DESONIDE]
5 | 146.5 Å² | Nc1nc(=O)c2ncn(COCCO)c2[nH]1 [ACYCLOVIR]
6 | 150.1 Å² | C=C(C)[C@H]1COc2cc3oc(=O)ccc3cc2O1 [OBLIQUIN]
7 | 131.2 Å² | Cc1[nH]c(C)c(Cl)c(=O)c1Cl [CLOPIDOL]
8 | 165.2 Å² | CC(N=C(NC#N)Nc1ccncc1)C(C)(C)C (stereo not drawn) [PINACIDIL]
9 | 186.4 Å² | CC1CC2C3CCC4=CC(=O)C=CC4(C)C3(F)C(O)CC2(C)C1C(=O)CO (stereo not drawn) [DESOXYMETASONE]
10 | 255.6 Å² | CC(C)c1c(O)c(-c2cc3c(c(C(C)C)c2O)CCC2C(C)(C)CCC[C@]32C)cc2c1CCC1C(C)(C)CCC[C@]21C (stereo partly drawn) [PODOTOTARIN]
11 | 138.6 Å² | O=C(O)/C=C/C=C/c1ccc2c(c1)OCO2 [PIPERIC ACID]
12 | 163.4 Å² | O=c1c(O)c(-c2ccc(O)c(O)c2)oc2cc(O)cc(O)c12 [QUERCETIN]
13 | 219.8 Å² | CCN(CC)CCOc1ccc2c(c1)C(=O)c1cc(OCCN(CC)CC)ccc1-2 [TILORONE]
14 | 155.4 Å² | Nc1nc(N)c2nc(-c3ccccc3)c(N)nc2n1 [TRIAMTERENE]
15 | 172.5 Å² | Cc1c(NC(=O)c2cccnc2)c(=O)n(-c2ccccc2)n1C [NIFENAZONE]
16 | 121.9 Å² | O=c1cc(CO)occ1O [KOJIC ACID]
17 | 162.2 Å² | COc1ccc(/C=C/C(=O)c2ccc(O)cc2O)cc1 [2',4'-DIHYDROXY-4-METHOXYCHALCONE]
18 | 207.1 Å² | CC(=O)O[C@@H]1CC2C(C)(CC[C@H](O)C2(C)C)C2CC[C@]3(C)C(=CC(=O)O[C@H]3c3ccoc3)C21C (stereo partly drawn) [3beta-HYDROXYDEOXODIHYDRODEOXYGEDUNIN]
19 | 160.4 Å² | CCOc1ccc(C(=O)c2ccc(O)c(O)c2O)cc1 [2,3,4-TRIHYDROXY-4'-ETHOXYBENZOPHENONE]
20 | 205.2 Å² | C[C@H](CCC(=O)NCC(=O)O)[C@H]1CC[C@H]2[C@@H]3[C@H](O)C[C@@H]4C[C@H](O)CC[C@]4(C)[C@H]3C[C@H](O)[C@]12C [GLYCOCHOLIC ACID]
21 | 171.2 Å² | COc1ccc2c(c1)OCC(Cc1ccc(O)c(OC)c1)C2=O (stereo not drawn) [DEOXYSAPPANONE B 7,3'-DIMETHYL ETHER]
22 | 132.9 Å² | C[N+](C)(C)C[C@H](O)CC(=O)[O-] [LEVOCARNITINE]
23 | 197.1 Å² | CC1(C)O[C@@H]2C[C@H]3[C@@H]4CCC5=CC(=O)C=C[C@]5(C)[C@@]4(F)[C@@H](O)C[C@]3(C)[C@]2(C(=O)CO)O1 [TRIAMCINOLONE ACETONIDE]
24 | 231.9 Å² | C[C@@H]1O[C@@H](O[C@H]2[C@H](Oc3cc(O)c4c(=O)cc(-c5ccc(O)cc5)oc4c3)O[C@H](CO)[C@@H](O)[C@@H]2O)[C@H](O)[C@H](O)[C@H]1O [RHOIFOLIN]
25 | 152.5 Å² | CC(C)C[C@H](NC(=O)[C@H](C)N)C(=O)O [ALANYL-dl-LEUCINE]
26 | 166.6 Å² | CC(C(=O)O)c1ccc(N2Cc3ccccc3C2=O)cc1 (stereo not drawn) [INDOPROFEN]

Row | collision cross section (N2) | Structure (SMILES)
27 | 180 Å² | O=C(CCCN1CCN(c2ccccn2)CC1)c1ccc(F)cc1 [AZAPERONE]
28 | 202.9 Å² | O=C(O[C@@H]1Cc2c(O)cc(O)cc2O[C@@H]1c1ccc(O)c(O)c1)c1cc(O)c(O)c(O)c1 [EPICATECHIN MONOGALLATE]
29 | 152.9 Å² | COc1ccc(C(=O)c2ccc(O)cc2)c(O)c1O [2,3,4'-TRIHYDROXY-4-METHOXYBENZOPHENONE]
30 | 169.1 Å² | COc1ccc([C@@H]2CC(=O)c3c(O)cc(O)cc3O2)cc1O [HESPERETIN]
31 | 155.1 Å² | Cn1cnc([N+](=O)[O-])c1Sc1ncnc2nc[nH]c12 [AZATHIOPRINE]
32 | 152.6 Å² | CN1CCCN=C1/C=C/c1cccc(O)c1 [OXANTEL]
33 | 194.8 Å² | CN(Cc1cnc2nc(N)nc(N)c2n1)c1ccc(C(=O)N[C@@H](CCC(=O)O)C(=O)O)cc1 [METHOTREXATE]
34 | 180.6 Å² | Cc1nc(-c2ccc(OCC(C)C)c(C#N)c2)sc1C(=O)O [FEBUXOSTAT]
35 | 229.3 Å² | O=c1cc(-c2ccc(O)cc2)oc2cc(O[C@@H]3O[C@H](CO)[C@@H](O)[C@H](O)[C@H]3O[C@@H]3OC[C@](O)(CO)[C@H]3O)cc(O)c12 [APIIN]
36 | 199.6 Å² | O=c1c(O)c(-c2ccc(O)c(O)c2)oc2c(O[C@@H]3O[C@H](CO)[C@@H](O)[C@H](O)[C@H]3O)c(O)cc(O)c12 [GOSSYPIN]
37 | 140.5 Å² | CCOc1ccc(NC(C)=O)cc1 [PHENACETIN]
38 | 205.2 Å² | COc1ccccc1OCC(O)CN1CCN(CC(=O)Nc2c(C)cccc2C)CC1 (stereo not drawn) [RANOLAZINE]
39 | 187 Å² | CC[C@@]1(O)C(=O)OCc2c1cc1n(c2=O)Cc2cc3cc(O)ccc3nc2-1 [10-HYDROXYCAMPTOTHECIN]
40 | 164.8 Å² | CN1CCN(C(c2ccccc2)c2ccccc2)CC1 [CYCLIZINE]
41 | 184.2 Å² and 170 Å² | CCn1cc(C(=O)O)c(=O)c2cc(F)c(N3CCNCC3)cc21 [NORFLOXACIN]
42 | 215.9 Å² | CC(=O)O[C@H]1C[C@@H](O)C(C)(C)C2C[C@@H](OC(C)=O)[C@]3(C)C(CC[C@@]4(C)[C@H](c5ccoc5)OC(=O)C5OC543)[C@]21C (stereo partly drawn) [3-DEACETYLKHIVORIN]
43 | 146.1 Å² | CC1(C)CC23C(=O)CCC(O)C2(C)CCC13 (stereo not drawn) [3-NOR-3-OXOPANASINSAN-6-OL]
44 | 134.3 Å² | Oc1c(Cl)cc(Cl)c2cccnc12 [CHLOROXINE]
45 | 172.4 Å² | CCCCC1C(=O)N(c2ccccc2)N(c2ccccc2)C1=O [PHENYLBUTAZONE]
46 | 181.9 Å² | COc1ccc(-c2oc3cc(OC)c(OC)c(OC)c3c(=O)c2OC)cc1 [3,4',5,6,7-PENTAMETHOXYFLAVONE]
47 | 198.5 Å² | COc1cc(/C=C/C(=O)CC(=O)/C=C/c2ccc(O)c(OC)c2)ccc1O [CURCUMIN]
48 | 153.8 Å² | O=C(Oc1cccc2cccnc12)c1ccccc1 [BENZOXIQUINE]

Row | Structure (SMILES) | collision cross section (N2)
49 | CCOP(=S)(OCC)Oc1nc(Cl)c(Cl)cc1Cl [CHLORPYRIFOS] | 201.7 Å²
50 | COP(=O)(OC)OC=C(Cl)Cl [DICHLORVOS] | 138.7 Å²
51 | O=P1(NCCCl)OCCCN1CCCl (stereo not drawn) [IFOSFAMIDE] | 147 Å²
52 | c1cncc(C2=NCCC2)c1 [MYOSMINE] | 128.2 Å²
53 | CCOC(=O)c1cncn1C(C)c1ccccc1 (stereo not drawn) [ETOMIDATE] | 155.9 Å²
54 | CC(C)=CCC[C@]1(C)C=Cc2c(O)c3c(c(CC=C(C)C)c2O1)O[C@]12C(=C[C@@H]4C[C@H]1C(C)(C)O[C@@]2(C/C=C(/C)C(=O)O)C4=O)C3=O [GAMBOGIC ACID] | 239 Å²
55 | C[C@]12CC[C@H]3[C@@H](CCC4=CC(=O)CC[C@@]43C)[C@@H]1CC[C@@H]2O [TESTOSTERONE] | 170.6 Å²
56 | O=c1c(O)c(-c2ccc(O)c(O)c2)oc2c(O)c(O)cc(O)c12 [GOSSYPETIN] | 165.9 Å²
57 | CC1(C)C2CC(=O)[C@]3(C)C(CC[C@@]4(C)[C@H](c5ccoc5)OC(=O)C5OC543)[C@@]2(C)[C@@H](O)C[C@H]1O (stereo partly drawn) [1,3-DIDEACETYL-7-DEACETOXY-7-OXOKHIVORIN] | 200.2 Å²
58 | CC(=O)O[C@H]1CC[C@@]2(C)C(C[C@@H](OC(C)=O)[C@@]3(C)C4=CC(=O)O[C@@H](c5ccoc5)[C@]4(C)CCC23)C1(C)C (stereo partly drawn) [3-DEOXO-3beta-ACETOXYDEOXYDIHYDROGEDUNIN] | 219.7 Å²
59 | CC(=O)O[C@H]1C[C@@H](OC(C)=O)C(C)(C)C2CC(=O)[C@]3(C)C(CC[C@@]4(C)[C@H](C(=O)O)OC(=O)C5OC543)[C@]21C (stereo partly drawn) [DEACETOXY(7)-7-OXOKHIVORINIC ACID] | 212.6 Å²
60 | Cc1cccc(C)c1NC1=NCCCS1 [XYLAZINE] | 147.8 Å²

Same assay, conditions: [M+Na]+; instrument: TW; calibrated with polyalanine and drug standards

Row | collision cross section (N2) [Å²] | Structure (SMILES)
61 | 150 | CC(=O)Oc1cccc(C(=O)O)c1OC(C)=O [DIPYROCETYL]
62 | 186.2 | CC1CC(OC(=O)C(O)c2ccccc2)CC(C)(C)C1 (stereo not drawn) [CYCLANDELATE]
63 | 200.8 | C[C@H](CCC(=O)NCC(=O)O)[C@H]1CC[C@H]2[C@@H]3[C@H](O)C[C@@H]4C[C@H](O)CC[C@]4(C)[C@H]3C[C@H](O)[C@]12C [GLYCOCHOLIC ACID]
64 | 177.2 | OC[C@H]1O[C@H](O[C@]2(CCl)O[C@H](CCl)[C@@H](O)[C@@H]2O)[C@H](O)[C@@H](O)[C@H]1Cl [SUCRALOSE]
65 | 202.8 | COC(=O)C[C@H]1C(C)(C)[C@@H](O)[C@@H]2CC3=C4CC(O)O[C@@H](c5ccoc5)[C@]4(C)CCC3[C@@]1(C)C2=O (stereo partly drawn) [3,16-DIDEOXYMEXICANOLIDE-3beta-DIOL]
66 | 183.2 | COc1ccc2c(c1OC)OC[C@@H](c1ccc(OC)c(OC)c1OC)C2 [DUARTIN, DIMETHYL ETHER]
67 | 211 | CCCCCCCCCCCCCCC(C(=O)O)C(O)(CC(=O)OC)C(=O)O (stereo not drawn) [CAPERATIC ACID]

Row | Structure (SMILES) | collision cross section (N2) [Å²]
68 | C=C(C)[C@@H]1[C@H]2OC(=O)[C@@H]1[C@]1(O)C[C@H]3O[C@]34C(=O)O[C@H]2[C@]14C [PICROTOXININ] | 168.7

— the C3SDB collision cross section collection
